Assays:
Leukemia P388 cells = test: Antileukemic effect on intraperitoneally inoculated P388 leukemia in mice; format: in vivo, CDF, Charles River female mice; details: for antileukemic activity: mice, 22, 33.5, 50 and 75 mg/kg, same schedule (twice daily for three days); for % increases in life span: mice
From the text: Leukemia P388 cells were inoculated intraperitoneally in CDF, Charles River female mice, each animal receiving 10^6 cells. On the second day after implantation with the leukemic cells, drug treatment was commenced and continued twice daily for three days.

[1] = target: T1, DHFR partially purified from rat liver (Rattus norvegicus, UniProt Q920D2); test: Inhibition of mammalian dihydrofolate reductase (DHFR); format: biochemical
T1 construct: DHFR partially purified from rat liver; from tissue; host or cells: rat liver
T1 sequence (Q920D2 1-187): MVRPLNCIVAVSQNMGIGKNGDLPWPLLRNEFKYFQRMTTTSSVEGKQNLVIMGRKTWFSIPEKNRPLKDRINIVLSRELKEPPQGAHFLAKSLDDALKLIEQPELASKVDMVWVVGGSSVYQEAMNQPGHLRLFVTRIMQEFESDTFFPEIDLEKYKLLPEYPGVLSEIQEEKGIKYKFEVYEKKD
Protocol: The inhibitory effect of the test compounds against DHFR partially purified from rat liver was determined.

[2] = target: Histamine N-methyl-transferase ( HMT ) (Homo sapiens, UniProt P50135); test: Inhibition of histamine N-methyltransferase (HMT); format: biochemical; details: read-out: % inhibition of HMT at 10^-5M
Protocol: EXAMPLE 4 Inhibition of Histamine N-methyl-transferase ( HMT ) by 2,4-Diamino-6-benzylpyrido(2,3-d)pyrimidine
The effect of the test compounds used in Example 3 against HMT was determined. An inhibition of less than 20% was considered acceptable and the lack of any effect on this enzyme is most desirable since any interference with histamine metabolism should be minimized.

Solid Walker 256 tumors = test: Antitumor effect on subcutaneously implanted Walker 256 tumors in rats; format: in vivo; details: for mean tumor volume as % of the untreated group: after 17 days
Protocol: Solid Walker 256 tumors were implanted subcutaneously into three groups of rats. On the third day after implantation with the tumors drug treatment was commenced and continued for 5 successive days. One group of rats was treated with 2,4-diamino-6-(2,5-dimethoxybenzyl)-5-methylpyrido(2,3-d) pyrimidine at a dose of 25mg/kg q.i.d., a second group was treated with the same compound at 15 mg/kg b.i.d.; the third group were left untreated as controls.
In a second study tumors were implanted subcutaneously and drug treatment delayed until 10 days after implantation. Drug treatment consisted of 30 mg/kg q.i.d. on days 10-13 and 50 mg/kg on days 20, 24 and 28 after tumor implantation. Mean tumor volumes were measured during the course of this study. […] Twenty-three days after tumor implantation T/C was 0.03.

[3] = Acute toxicity in mice (i.p.); details: mouse, in vivo, ip
Protocol: The acute toxicity of the title compounds was determined in mice ( i.p. ). The following results were obtained:-

Sequence of Histamine N-methyl-transferase ( HMT ) (P50135 whole entry, species assumed): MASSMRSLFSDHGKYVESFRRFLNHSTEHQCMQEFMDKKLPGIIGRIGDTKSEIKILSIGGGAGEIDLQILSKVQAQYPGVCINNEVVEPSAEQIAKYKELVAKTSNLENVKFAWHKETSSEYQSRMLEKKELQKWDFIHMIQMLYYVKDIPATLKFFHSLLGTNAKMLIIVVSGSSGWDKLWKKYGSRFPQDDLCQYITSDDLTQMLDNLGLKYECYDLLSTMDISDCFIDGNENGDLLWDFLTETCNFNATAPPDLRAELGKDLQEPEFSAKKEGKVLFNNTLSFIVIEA

Compound	IC50 [1]	inhibition at 10 µM [2]	further results
Cc1c(Cc2ccccc2Cl)cnc2nc(N)nc(N)c12 [2-chlorobenzyl compound]			antileukemic activity (Leukemia P388 cells): only marginal or slight activity
Cc1c(Cc2ccccc2Cl)cnc2nc(N)nc(N)c12 [the 1st table, row 5]	16 nM	59%	
COc1ccc(Cc2cnc3nc(N)nc(N)c3c2C)cc1			antileukemic activity (Leukemia P388 cells): inactive at all doses
COc1ccc(OC)c(Cc2cnc3nc(N)nc(N)c3c2C)c1 [2,4-Diamino-5-methyl-6-(2,5-dimethoxybenzyl)pyrido-(2,3-d)pyrimidine)]			mean tumor volume as % of the untreated group (Solid Walker 256 tumors; 15 mg/kg b.i.d. for 5 successive days from third day after implantation): 10%; mean tumor volume as % of the untreated group (Solid Walker 256 tumors; 25mg/kg q.i.d. for 5 successive days from third day after implantation): 29%; mean tumor volume during the period of observation (Solid Walker 256 tumors; second study, 30 mg/kg q.i.d. on days 10-13 and 50 mg/kg on days 20, 24 and 28): decrease in mean tumor volume; T/C (Solid Walker 256 tumors; second study, 30 mg/kg q.i.d. on days 10-13 and 50 mg/kg on days 20, 24 and 28, twenty-three days after tumor implantation): 0.03; % increases in life span (Leukemia P388 cells; 22 mg/kg twice daily for three days from second day): 145%; % increases in life span (Leukemia P388 cells; 33.5 mg/kg twice daily for three days from second day): 159%; % increases in life span (Leukemia P388 cells; 50 mg/kg twice daily for three days from second day): 140%; % increases in life span (Leukemia P388 cells; 75 mg/kg twice daily for three days from second day): 154%; drug-related toxicity (Leukemia P388 cells; mice, 22, 33.5, 50 and 75 mg/kg twice daily for three days): no evidence of drug-related toxicity; LD50 [3]: ~500 mg/kg
Nc1nc(N)c2cc(Cc3ccccc3)cnc2n1	250 nM	48%	
COc1ccc(OC)c(Cc2cnc3nc(N)nc(N)c3c2C)c1 [the 1st table, row 11]		11%	

Now from value to compound, other results behind:

IC50 [1]	inhibition at 10 µM [2]	Compound	further results
27 nM		Cc1ccc(Cc2cnc3nc(N)nc(N)c3c2C)cc1	
7.8 nM	19%	COc1ccc(Cc2cnc3nc(N)nc(N)c3c2C)cc1OC	
53 nM	20%	COc1ccc(Cc2cnc3nc(N)nc(N)c3c2C)cc1 [the 1st table, row 8]	
50 nM	18%	COc1ccccc1Cc1cnc2nc(N)nc(N)c2c1C	
40 nM	51%	Cc1c(Cc2ccccc2)cnc2nc(N)nc(N)c12 [-CH2 Ph]	
90 nM	55%	CCc1ccc(Cc2cnc3nc(N)nc(N)c3c2C)cc1	

— EP0021292A1, “Alkoxybenzylpyridopyrimidines, methods for their preparation and pharmaceutical formulations thereof” (THE WELLCOME FOUNDATION LIMITED, priority 1979, dated 1981)
